One assay deals with T1, human GST-PIKFYVE (Homo sapiens, UniProt Q9Y2I7).
T1 construct: GST; purchased Carna biosciences 11-118
Put plainly: ADP-Glo kinase assay, enzyme inhibition activity against human PIKFYVE (Carna biosciences). It counts as biochemical. To be noted: inhibitory activity at final compound concentration 10 nM; 1 hour at room temperature. As to the method: The enzyme inhibition activity values for the compounds according to Examples against human PIKFYVE were calculated using the ADP-Glo™ kinase assay service of Carna biosciences, Inc. The enzyme activity evaluation method provided by Carna biosciences Inc., is shown below.
Enzyme inhibition activity was evaluated by reacting the compounds according to Examples with human GST-PIKFYVE (11-118, Carna biosciences), which was purified using glutathione Sepharose chromatography. The reaction buffer used was composed of 50 mmol/L MOPS, 1 mmol/L DTT, and pH 7.2, and all reactions of the test distilled water were performed in the buffer.
Compounds were prepared as solutions in 100% DMSO as 100× stocks and adjusted to have a final sample concentration of 10 nM.
The substrate-enzyme reaction for PIKFYVE was performed by mixing 5 μL human GST-PIKFYVE, 5 μL compounds according to Examples, 5 μL enzyme substrate, and 5 μL purified ATP and reacting for 1 hour at room temperature. After the substrate-enzyme reaction, 20 μL ADP-Glo™ Reagent was added and reacted at room temperature for 40 minutes, then 40 μL Kinase Detection Reagent was added and reacted at room temperature for 40 minutes.
After completion of the reaction, the degree of enzyme activity inhibition was measured by luminescence. The fluorescence of the enzyme activity in the solvent control group […] was set to 100%, and the fluorescence of the enzyme activity in the solvent control group without compound treatment was set to 0%. The inhibitory activity of each compound according to Examples was calculated based on these values.

A further assay deals with T2, PIKFYVE (Homo sapiens, UniProt Q9Y2I7).
T2 construct: host or cells: HEK293 (ATCC, CRL-1573)
T2 sequence (Q9Y2I7 whole entry): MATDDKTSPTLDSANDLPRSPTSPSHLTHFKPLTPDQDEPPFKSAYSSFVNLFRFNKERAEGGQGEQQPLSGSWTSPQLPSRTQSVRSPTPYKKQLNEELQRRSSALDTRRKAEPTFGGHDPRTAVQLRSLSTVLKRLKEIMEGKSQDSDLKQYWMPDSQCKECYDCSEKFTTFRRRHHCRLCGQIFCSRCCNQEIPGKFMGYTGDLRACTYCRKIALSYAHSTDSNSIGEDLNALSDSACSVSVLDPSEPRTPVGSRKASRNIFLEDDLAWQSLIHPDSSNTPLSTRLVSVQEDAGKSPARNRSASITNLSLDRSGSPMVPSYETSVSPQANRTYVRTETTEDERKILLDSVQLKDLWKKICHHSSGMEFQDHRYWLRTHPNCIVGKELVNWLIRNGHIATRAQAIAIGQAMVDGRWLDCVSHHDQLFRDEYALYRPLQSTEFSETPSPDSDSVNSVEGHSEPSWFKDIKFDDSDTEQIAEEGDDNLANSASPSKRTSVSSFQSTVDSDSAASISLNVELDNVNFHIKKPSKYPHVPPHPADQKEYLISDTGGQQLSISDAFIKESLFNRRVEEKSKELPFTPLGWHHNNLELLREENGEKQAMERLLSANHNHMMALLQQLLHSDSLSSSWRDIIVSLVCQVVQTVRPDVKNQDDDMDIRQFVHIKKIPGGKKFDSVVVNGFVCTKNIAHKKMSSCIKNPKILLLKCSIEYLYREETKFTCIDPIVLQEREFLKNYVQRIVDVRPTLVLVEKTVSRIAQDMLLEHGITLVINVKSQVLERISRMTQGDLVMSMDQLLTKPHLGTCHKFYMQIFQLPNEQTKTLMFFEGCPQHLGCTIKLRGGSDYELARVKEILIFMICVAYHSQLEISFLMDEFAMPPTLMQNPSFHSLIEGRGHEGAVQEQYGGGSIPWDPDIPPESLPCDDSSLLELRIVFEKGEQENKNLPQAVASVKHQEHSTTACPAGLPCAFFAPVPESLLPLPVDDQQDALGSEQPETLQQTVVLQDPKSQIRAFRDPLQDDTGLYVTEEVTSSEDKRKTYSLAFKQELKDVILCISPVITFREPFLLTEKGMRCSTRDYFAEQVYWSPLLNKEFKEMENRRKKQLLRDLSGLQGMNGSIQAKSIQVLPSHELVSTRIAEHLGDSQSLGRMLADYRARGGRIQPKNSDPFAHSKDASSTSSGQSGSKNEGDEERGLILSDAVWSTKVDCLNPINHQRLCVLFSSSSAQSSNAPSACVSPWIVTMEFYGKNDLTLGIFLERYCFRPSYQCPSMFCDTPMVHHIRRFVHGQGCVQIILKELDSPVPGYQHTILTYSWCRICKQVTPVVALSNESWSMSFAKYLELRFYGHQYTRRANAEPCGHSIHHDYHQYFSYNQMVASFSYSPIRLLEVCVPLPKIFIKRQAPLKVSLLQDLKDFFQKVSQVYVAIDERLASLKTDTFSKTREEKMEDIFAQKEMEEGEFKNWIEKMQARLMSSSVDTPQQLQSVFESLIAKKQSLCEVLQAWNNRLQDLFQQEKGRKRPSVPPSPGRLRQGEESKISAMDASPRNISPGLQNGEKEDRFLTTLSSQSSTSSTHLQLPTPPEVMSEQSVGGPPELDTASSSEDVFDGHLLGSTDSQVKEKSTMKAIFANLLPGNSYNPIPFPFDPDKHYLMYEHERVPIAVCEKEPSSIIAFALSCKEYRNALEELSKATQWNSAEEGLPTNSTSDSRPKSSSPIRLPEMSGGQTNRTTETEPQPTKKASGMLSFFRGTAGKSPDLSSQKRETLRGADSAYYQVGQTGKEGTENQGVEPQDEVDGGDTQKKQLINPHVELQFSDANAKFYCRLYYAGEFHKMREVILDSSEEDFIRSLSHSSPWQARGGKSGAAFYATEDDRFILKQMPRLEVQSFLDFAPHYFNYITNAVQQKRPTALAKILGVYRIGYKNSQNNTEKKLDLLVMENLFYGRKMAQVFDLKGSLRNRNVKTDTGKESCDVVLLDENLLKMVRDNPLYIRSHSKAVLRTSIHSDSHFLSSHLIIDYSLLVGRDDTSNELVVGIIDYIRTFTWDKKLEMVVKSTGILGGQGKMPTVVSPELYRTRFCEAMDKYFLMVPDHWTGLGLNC
Briefly: NanoBRET TE Intracellular Kinase Assay, interaction of PIKFYVE and compounds in HEK293 cells. To be noted: IC50 class from BRET; HEK293 cells expressing PIKFYVE-NanoLuc; 2 hours incubation. It counts as cell-based. As to the method:
To predict the efficacy of the compounds according to Example on PIKFYVE in humans, the interaction between PIKFYVE and the compounds was tested using the HEK293 cell line derived from human embryonic kidney (ATCC, CRL-1573) via NanoBRETT TE Intracellular Kinase Assay Service of Carna biosciences Inc., (Japan). The evaluation method provided by Carna biosciences Inc., was shown below and the NanoBRET™ TE Intracellular Kinase Assay, K-8 Kit (Promega, CS1810C88) was used.
The HEK-293 cells cultured in Opti-MEM™ I Reduced Serum Medium (Thermo Fisher, 11058-021) were transfected with Transfection Carrier DNA (Promega, E4881), PIKFYVE-NanoLuc Fusion Vector (Promega, CS1810C225), and FuGENE HD Transfection Reagent (Promega, E2311) to produce cells expressing genes combining PIKFYVE and NanoLuc, followed by culturing 100 μl (2×10^5 cells/ml) each in 96-well plates (Corning, 3917).
10× compounds according to Examples or Comparative Examples prepared by concentration in 1× NanoBRET™ tracer reagent and DMSO were reacted in 96-well plates and incubated for 2 hours in a 37° C., 5% CO2 incubator.
After the reaction was completed, 3× Complete NanoBRET™ Nano-Glo Substrate solution was added to each well, and the reaction was allowed to run for 2-3 minutes at room temperature before BRET was measured using a GloMax Discover Multimode Microplate Reader (Promega).

T1 sequence (Q9Y2I7 whole entry): as above

For `COc1ccc(-c2cccc3c(N/N=C/c4cccc(C)c4)nc(N4CCOCC4)nc23)cc1` [Example 213, (E)-4-(8-(4-methoxyphenyl)-4-(2-(3-methylbenzylidene)hydrazinyl)quinazolin-2-yl)morpholine], at human GST-PIKFYVE, the “ADP-Glo kinase assay (%, 10 nM)” value is listed as 68.30%. At PIKFYVE, this compound displayed an IC50 of 10 to 20 nM.

In the case of `Cc1cccc(/C=N/Nc2nc(N3CCOCC3)nc3c2ncn3-c2ccc(C(F)(F)F)cc2)c1` [Example 104, (E)-4-(6-(2-(3-methylbenzylidene)hydrazinyl)-9-(4-(trifluoromethyl)phenyl)-9H-purin-2-yl)morpholine], the “ADP-Glo kinase assay (%, 10 nM)” value at human GST-PIKFYVE worked out at 68.18%. The IC50 on PIKFYVE fell in the range of 10 to 20 nM.

On to `Cc1cccc(/C=N/Nc2nc(N3CCOCC3)nc3c2ncn3CC(=O)c2cccc(C#N)c2)c1` [Example 36, (E)-3-(2-(6-(2-(3-methylbenzylidene)hydrazinyl)-2-morpholino-9H-purin-9-yl)acetyl)benzonitrile], for which, at human GST-PIKFYVE, the “ADP-Glo kinase assay (%, 10 nM)” value turned out to be 76.04%. Besides, at PIKFYVE, the concentration for half-maximal inhibition (IC50) was 10 to 20 nM.

Consider `Cc1cccc(/C=N/Nc2nc(N3CCOCC3)nc3c2ncn3C2CCN(C(=O)c3cccnc3)CC2)c1` [Example 87, (E)-(4-(6-(2-(3-methylbenzylidene)hydrazinyl)-2-morpholino-9H-purin-9-yl)piperidin-1-yl)(pyridin-3-yl)methanone], for which the “ADP-Glo kinase assay (%, 10 nM)” value at human GST-PIKFYVE amounted to 63.65%. The same compound gave a half-inhibitory concentration (IC50) on PIKFYVE of 10 to 20 nM.

As to `Cc1cccc(/C=N/Nc2nc(N3CCOCC3)nc3c2ncn3-c2ccccc2)c1` [Example 119, (E)-4-(6-(2-(3-methylbenzylidene)hydrazinyl)-9-phenyl-9H-purin-2-yl)morpholine], the “ADP-Glo kinase assay (%, 10 nM)” value on human GST-PIKFYVE was 80.61%. Further, the IC50 against PIKFYVE is at most 10 nM.

In the case of `COC(=O)N1CCC(n2cnc3c(N/N=C/c4cccc(C)c4)nc(N4CCOCC4)nc32)CC1` [Example 91, methyl (E)-4-(6-(2-(3-methylbenzylidene)hydrazinyl)-2-morpholino-9H-purin-9-yl)piperidine-1-carboxylate], the “ADP-Glo kinase assay (%, 10 nM)” value at human GST-PIKFYVE is given as 73.33%. The half-maximal inhibitory concentration (IC50) on PIKFYVE is 10 to 20 nM.

Take `COc1cccc(-c2cccc3c(N/N=C/c4cccc(C)c4)nc(N4CCOCC4)nc23)c1` [Example 211, (E)-4-(8-(3-methoxyphenyl)-4-(2-(3-methylbenzylidene)hydrazinyl)quinazolin-2-yl)morpholine]: the “ADP-Glo kinase assay (%, 10 nM)” value at human GST-PIKFYVE was 64.14%. This compound displayed an IC50 against PIKFYVE of 20 to 30 nM.

On to `Cc1cccc(/C=N/Nc2nc(N3CCOCC3)nc3c2ncn3C2CCN(C(=O)N3CCOCC3)CC2)c1` [Example 88, (E)-(4-(6-(2-(3-methylbenzylidene)hydrazinyl)-2-morpholino-9H-purin-9-yl)piperidin-1-yl)(morpholino)methanone], for which the “ADP-Glo kinase assay (%, 10 nM)” value on human GST-PIKFYVE turned out to be 64.66%. Also, on PIKFYVE, the IC50 lay within 20 to 30 nM.

As to `Cc1cccc(/C=N/Nc2nc(N3CCOCC3)nc3c2ncn3-c2ccc(Cl)cn2)c1` [Example 116, (E)-4-(9-(5-chloropyridin-2-yl)-6-(2-(3-methylbenzylidene)hydrazinyl)-9H-purin-2-yl)morpholine], the “ADP-Glo kinase assay (%, 10 nM)” value at human GST-PIKFYVE stood at 87.75%. Also, on PIKFYVE, the IC50 was at most 10 nM.

In the case of `Cc1cccc(/C=N/Nc2nc(N3CCOCC3)nc3c2ncn3C2CCN(S(C)(=O)=O)CC2)c1` [Example 92, (E)-4-(6-(2-(3-methylbenzylidene)hydrazinyl)-9-(1-(methylsulfonyl)piperidin-4-yl)-9H-purin-2-yl)morpholino], the “ADP-Glo kinase assay (%, 10 nM)” value at human GST-PIKFYVE worked out at 61.82%. Moreover, the 50% inhibitory concentration (IC50) on PIKFYVE is 20 to 30 nM.

In the case of `Cc1cccc(-c2ccn(-c3nc(N4CCOCC4)nc4c3ncn4-c3ccncc3)n2)c1` [Example 107, 4-(9-(pyridin-4-yl)-6-(3-(m-tolyl)-1H-pyrazol-1-yl)-9H-purin-2-yl)morpholine], the “ADP-Glo kinase assay (%, 10 nM)” value on human GST-PIKFYVE came to 82.62%. On PIKFYVE, this compound came in with a half-inhibitory concentration (IC50) of at most 10 nM.

The record behind these values is patent US20250388582A1, “NOVEL BICYCLIC HETEROARYL COMPOUND AND USE THEREOF” (ILDONG PHARMACEUTICAL CO., LTD., priority 2022, published 2025).
